Assay results taken from patent US7604993B2, “Combined regulation of neural cell production” (Stem Cell Therapeutics Inc., priority 2001, dated 2009).
Entries after “also recorded” stand apart in the source; their conditions may differ. No end group written: not given here.

What was measured:
neurospheres = test: Multipotency of neurospheres (neuron, oligodendrocyte, astrocyte derived from each neurosphere); assay type: cell-based; conditions: neurospheres produced in the factor(s)
Method: The protocols for neural stem cell culture are described in detail in U.S. Pat. No. 5,750,376 or Shingo et al., 2001. Briefly, embryonic neural stem cells were prepared from E14 medial and lateral ganglionic eminences. Adult neural stem cells were prepared from the subventricular zone of adult mice. The tissue was cultured in basal medium containing 20 ng/ml EGF, or other growth factors as indicated in each case, to form neurospheres. The composition of the basal medium is as follows: DMEM/F12 (1:1); glucose (0.6%); glutamine (2 mM); sodium bicarbonate (3 mM); HEPES (5 mM); insulin (25 μg/ml); transferrin (100 μg/ml); progesterone ([…]); putrescine (60 μM); and selenium chloride (30 nM).
Accordingly, we compared the expandability and multipotency of neurospheres that were produced in EGF alone or EGF plus CNTF. For expandability, pass 1 neurospheres were dissociated and replated at clonal density to generate pass 2 neurospheres, and the number of pass 2 neurospheres that were derived from a single pass 1 sphere was counted. […] Therefore, neural stem cells differentiate to glial cells by default, which can be inhibited by CNTF.

[1] = test system: neural stem cells in the subventricular zone; test: Subcutaneous administration, number of neural stem cells in the subventricular zone; assay type: in vivo
[2] = test system: migrating neuronal progenitor cells; test: Brain anatomical analysis (Cresyl Violet, Doublecortin) in focal ischemic injury (stroke) model; assay type: in vivo; conditions: rats with focal ischemic injury, end of week 6
Description: The animals for the stroke study received unilateral devascularization of the sensorimotor cortex. Using Isoflurane anesthesia, the skin was incised and retracted and the overlying fascia were removed from the skull. A skull opening was made at the following coordinates, taking care not to damage the dura: AP +4.0 to −2.0; L 1.5 to 4 (the parasagittal ridge; Kolb et al., 1997). The dura was cut and retracted from the skull opening. A cotton swab soaked in sterile saline was gently rubbed across the exposed pia and the vessels were removed. A hole was then drilled in the contralateral hemisphere to provide an opening for the cannulae attached to the osmotic minipump at AP −0.5; L 1.5. An osmotic minipump was placed under the skin between the shoulder blades and a tube connected under the skin to the cannulae, which was attached to the skull with fast-drying cement. Once hemostasis had been achieved the scalp was sutured closed with 5-O sterile suture. The animals were given a single injection of Banamine (an analgesic) and returned to their home cage. Sham animals received only anesthesia, the bone opening, and the skin was incised and sutured. […] The animals then received various test factors, and the effects of these factors on the forelimb inhibition test and brain anatomy were assessed. […]

[3] = Forelimb asymmetry test in focal ischemic injury (stroke) model; assay type: in vivo; conditions: rats with focal ischemic injury; first infusion days 1-7, second infusion days 8-14
Description: (§1) Adult male Long-Evans rats (250-350 g) were obtained from Charles River Breeding Farms and were adapted to the colony for two weeks prior to any treatment. A week before surgery the rats were given a baseline testing on the behavioral tests.
(§2) The animals for the stroke study received unilateral devascularization of the sensorimotor cortex. Using Isoflurane anesthesia, the skin was incised and retracted and the overlying fascia were removed from the skull. A skull opening was made at the following coordinates, taking care not to damage the dura: AP +4.0 to −2.0; L 1.5 to 4 (the parasagittal ridge; Kolb et al., 1997). The dura was cut and retracted from the skull opening. A cotton swab soaked in sterile saline was gently rubbed across the exposed pia and the vessels were removed. […]
(§3) Six days later the animals were assessed using the behavioral test. […]
Forepaw asymmetry of the animals was determined by filming them from below while in an acrylic cylinder 25 cm in diameter, on an acrylic platform. Preference was determined by separately counting the number of times in 5 minutes that an animal reared and placed the left or right forepaw on the surface of the cylinder in a gesture of postural stabilization. […]
(§4) The animals then received various test factors, and the effects of these factors on the forelimb inhibition test and brain anatomy were assessed. […]

[4] = Forelimb inhibition test in focal ischemic injury (stroke) model; assay type: in vivo; conditions: rats with focal ischemic injury; first infusion days 1-7, second infusion days 8-14
Description: as §1
as §2, with “removed. A hole was then drilled in the contralateral hemisphere to provide an opening for the cannulae attached to the osmotic minipump at AP −0.5; L 1.5.” for “removed.”
as §3
In normal rats, swimming is accomplished by propulsion from the hind limbs. […] Inhibition of the forelimbs was assessed by filming animals while swimming. […]
as §4

Row | Substance | glial cells generated by neurospheres, relative to those produced in EGF plus CNTF (neurospheres) | delivery by subcutaneous administration to modulate the number of neural stem cells in the subventricular zone [1] | doublecortin staining / doublecortin positive cells in the brain [2] | recovery of forelimb asymmetry / motor function in the forelimb asymmetry test [3] | forepaw inhibition / motor function in the forelimb inhibition test [4]
1 | EGF: epidermal growth factor; human recombinant EGF for infusion (NSDSECPLSHDGYCLHDGVCMYIEALDKYACNCVVGYIGERCQYRDLKWWELR; UniProt P01133 971-1023, looked up) | 4 times | – | – | – | –
2 | IGF-1: IGF-1, a factor said to proliferate neural stem cells | – | effectively delivered | – | – | –
3 | PACAP: pituitary adenylate cyclase activating polypeptide (HSDGIFTDSYSRYRKQMAVKKYLAAVLGKRYKQRVKNK; ends and bridges not checked; UniProt P18509 132-169, looked up) | – | effectively delivered | – | – | –
4 | growth hormone: growth hormone, first infusion days 1-7, then CSF (Group 5) | – | effectively delivered | increased doublecortin positive cells | improvement of motor functions; also recorded: recovered from asymmetrical forelimb usage; also recorded: improved a motor neuron-related function; also recorded: reversed effect | reversed effect
